{
  "source": "patent US10584127B2",
  "about": "“3,3-difluoropiperidine carbamate heterocyclic compounds as NR2B NMDA receptor antagonists” (Rugen Holdings (Cayman) Limited, priority 2015, dated 2020)",
  "key": {"[1]": {"system": "NMDA receptor (all subtypes), native rat brain receptors", "assay": "[3H] MK-801 radioligand binding assay, rat brain membranes", "settings": "2 nM [3H] MK-801, rat brain membranes", "description": "This example describes NMDA receptor binding assays using two different radioligands, [^3H] […] An established binding assay using the non-selective NMDA receptor ligand [^3H] […] The binding assay method using the NR2B selective receptor ligand [^3H] […] This assay serves as a selective measure of NR2B receptor binding activity in native rat brain receptors. Briefly, the brains of Male Wistar rats were homogenized (Polytron) before centrifugation at 40,000×g for 15 minutes at 4° C. After 2 washes, the final pellet was homogenized and stored at −80° C. The protein concentration was determined by Bradford assay.\nTest compounds were solubilized at 10 mM in DMSO. Then the dilutions were performed with a constant solvent concentration (1% DMSO) in the assay.\nAfter incubation for 4.5 h at room temperature, the assays were filtered on GF/B filters pretreated with 0.3% (v/v) PEI with a Brandel system for [^3H] […] The experiment was performed in duplicate (n=2)."}, "[2]": {"target": "CYP2D6 (Homo sapiens (Human), UniProt P10635)", "sequence (P10635 whole entry)": "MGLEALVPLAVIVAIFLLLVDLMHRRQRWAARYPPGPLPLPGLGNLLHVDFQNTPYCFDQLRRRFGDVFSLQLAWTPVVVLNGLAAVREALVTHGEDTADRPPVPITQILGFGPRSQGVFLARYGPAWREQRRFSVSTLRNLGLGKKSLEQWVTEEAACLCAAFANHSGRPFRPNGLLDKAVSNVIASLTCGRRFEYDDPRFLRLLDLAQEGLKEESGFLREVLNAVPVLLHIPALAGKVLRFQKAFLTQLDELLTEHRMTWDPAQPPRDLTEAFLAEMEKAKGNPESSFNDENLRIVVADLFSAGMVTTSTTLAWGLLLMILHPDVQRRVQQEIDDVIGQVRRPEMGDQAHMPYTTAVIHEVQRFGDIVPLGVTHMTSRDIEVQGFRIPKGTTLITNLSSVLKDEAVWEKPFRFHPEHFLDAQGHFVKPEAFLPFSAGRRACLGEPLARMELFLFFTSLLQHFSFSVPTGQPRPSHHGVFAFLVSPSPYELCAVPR", "assay": "CYP P450 enzyme inhibition, pooled human liver microsome", "type": "in vitro ADME", "settings": "HLM, dextromethorphan 5 μM", "quoted_text": "Those CYP isoforms and their corresponding probe substrates are as follows: CYP1A2 (phenacetin, 30 μM), CYP2C9 (tolutamide, 100 μM), CYP2C19 (S-mephenytoin, 40 μM), CYP2D6 (dextromethorphan, 5 μM) and CYP3A4 (midazolam, 1 μM). All probe substrates were used at concentrations near or below their Kms. For experiment, a reaction mixture of test compound at 10 μM or in serial dilution, CYP probe substrate described above and 0.2 mg/mL pooled HLM in phosphate buffer, pH 7.4 in a final volume of 200 μL was pre-incubated at 37° C. for 10 minutes in triplicate. The reaction was initiated by addition of NADPH at final concentration of 1 mM. The reaction was terminated after 10 minutes (CYP1A2, CYP2D6 and CYP3A4) or 30 minutes (CYP2C9 and CYP2C19) by addition of 100 μL ice-cold acetonitrile with internal standard (IS). The samples were then centrifuged at 13,000 rpm and the supernatants were injected to LC-MS/MS (Agilent Technologies) to quantify the concentration of the specific metabolites of the probe substrates formed by individual CYP450 isoforms. The inhibition ratio is calculated as: (Mt−M0)/Mwater×100% in which Mt and M0 represent the concentrations of the specific probe substrate metabolite, which was formed by individual CYP450 isoform, at the beginning and end of the reaction in the presence of test compound; while Mwater represents the concentration of the specific metabolite at the end of the reaction in the absence of test compound. Test compound concentration-dependent response data experiments performed in triplicate."}, "[3]": {"system": "electroconvulsive threshold (tonic convulsions)", "assay": "Electroconvulsive Threshold Test (ECT)", "type": "in vivo, rats", "settings": "rats, 3, 10 and 30 mpk p.o., mesylate salt", "description": "Rats were administered ECS (rectangular current: 0.6 ms pulse width, 1.5 s duration, 200 Hz) via earclip electrodes connected to a constant current shock generator (Ugo Basile: type 7801). Test compounds were administered by oral gavage (p.o.) 1 hour before the test at a dose volume of 5 mL/kg.\nTreatment groups of 20 rats were exposed to ECS as follows: The first animal was exposed to 30 mA of ECS. […] (increases of 5 mA) until the first tonic convulsion was observed. Once the first tonic convulsion was observed, the intensity of ECS was decreased by 2 mA for the next animal and then decreased or increased by 2 mA from animal to animal depending on whether the previous animal convulsed or not. If the first animal did convulse (tonic convulsions) within 5 seconds, animal n°2 is exposed to 25 mA, etc . . . (decreases of 5 mA) until the absence of tonic convulsions was observed. At this point, the intensity of ECS was increased by 2 mA for the next animal and then decreased or increased by 2 mA from animal to animal depending on whether the previous animal convulsed or not. The minimum current intensity applied is 5 mA and the maximum 95 mA. The first 5 animals serve to approach threshold current and were not included in the analysis. The results are presented as the mean current intensity administered to the final 15 animals of a group. The test was performed blind. A positive percent change indicates an anticonvulsant effect. A negative percent change indicates a proconvulsant effect. The test substance was evaluated at 4 doses, typically using 0.5% dimethylsulfoxide, 4% hydroxypropyl-b-cyclodextrin water as a vehicle, and administered p.o. 60 minutes before ECS, and compared with a vehicle control group. Diazepam (16 mg/kg p.o.), administered under the same experimental conditions, was used as reference substance. The experiment included 6 groups. Data with the test substance was analyzed by comparing treated groups with vehicle control using one-way ANOVA followed by Dunnett's t tests."}},
  "data": [
    {"smiles": "Cc1ccc(COC(=O)N2CC[C@H](CNc3nccn4cnnc34)C(F)(F)C2)cc1", "note": "[Compound E1-1.2, (+)-R-4-methylbenzyl 4-(([1,2,4]triazolo[4,3-a]pyrazin-8-ylamino)methyl)-3,3-difluoropiperidine-1-carboxylate]", "values": [
      {"measurement": "partial effect on [3H] MK-801 binding", "setting": "[1]", "value": 40, "unit": "%"},
      {"measurement": "CYP2D6 @ 10 μM (%)", "setting": "[2]", "value": 14, "unit": "%"},
      {"measurement": "activity on electroconvulsive threshold", "setting": "[3]", "value": "robust anticonvulsant activity"}
    ]}
  ]
}
